# Measured values reported in PubChem BioAssay AID248 (DTP/NCI, 2004).
# Where “and” joins values, the source holds several entries; their conditions need not be identical. Equal values may be shown once. Inconclusive results and toxic doses are left out.
# Tested on: L1210 leukemia ip in BDF1 mice, survival T/C
# Experiment: NCI In Vivo Anticancer Drug Screen. Data for tumor model L1210 Leukemia (intraperitoneal) in B6D2F1 (BDF1) mice
# Conditions: endpoint: mean survival time, higher = longer survival
# Summary of the method: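 Tumor cells were implanted, animals were treated, and survival was followed. The result divides the treated measurement by the vehicle-control measurement.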
# [1] = dose: 100.0 mg/kg/injection, schedule: Q04DX003 (ip), vehicle: saline
# [2] = dose: 200.0 mg/kg/injection, schedule: Q04DX003 (ip), vehicle: saline
# [3] = dose: 400.0 mg/kg/injection, schedule: Q04DX003 (ip), vehicle: saline
# [4] = dose: 25.0 mg/kg/injection, schedule: Q04DX002 (ip), vehicle: saline with Tween-80
# [5] = dose: 100.0 mg/kg/injection, schedule: Q01DX009 (ip), vehicle: Klucel (hydroxypropylcellulose) (HPC)
# [6] = dose: 200.0 mg/kg/injection, schedule: Q01DX009 (ip), vehicle: Klucel (hydroxypropylcellulose) (HPC)
# [7] = dose: 100.0 mg/kg/injection, schedule: Q04DX003 (ip), vehicle: Klucel (hydroxypropylcellulose) (HPC)
# [8] = dose: 200.0 mg/kg/injection, schedule: Q04DX003 (ip), vehicle: Klucel (hydroxypropylcellulose) (HPC)
# [9] = dose: 400.0 mg/kg/injection, schedule: Q04DX003 (ip), vehicle: Klucel (hydroxypropylcellulose) (HPC)
# [10] = dose: 100.0 mg/kg/injection, schedule: Q01DX001 (ip), vehicle: carboxymethylcellulose (CMC)
# [11] = dose: 200.0 mg/kg/injection, schedule: Q01DX001 (ip), vehicle: carboxymethylcellulose (CMC)
# [12] = dose: 400.0 mg/kg/injection, schedule: Q01DX001 (ip), vehicle: carboxymethylcellulose (CMC)
# [13] = dose: 25.0 mg/kg/injection, schedule: Q01DX009 (ip), vehicle: Klucel (hydroxypropylcellulose) (HPC)
# [14] = dose: 100.0 mg/kg/injection, schedule: Q01DX009 (ip), vehicle: saline with Tween-80
# [15] = dose: 200.0 mg/kg/injection, schedule: Q01DX009 (ip), vehicle: saline with Tween-80
# [16] = dose: 50.0 mg/kg/injection, schedule: Q01DX009 (ip), vehicle: saline with Tween-80
# [17] = dose: 100.0 mg/kg/injection, schedule: Q01DX009 (ip), vehicle: saline
# [18] = dose: 200.0 mg/kg/injection, schedule: Q01DX009 (ip), vehicle: saline
# [19] = dose: 400.0 mg/kg/injection, schedule: Q01DX009 (ip), vehicle: saline
structure (smiles),measurement,setting,value
CCOc1nc(=O)n(C2CCOC2=O)cc1F (centres undefined),T/C,"dose: 75.0 mg/kg/injection, schedule: Q01DX009 (ip), vehicle: other",103 % of control
same,T/C,[1],92 % of control
same,T/C,"dose: 150.0 mg/kg/injection, schedule: Q01DX009 (ip), vehicle: other",103 % of control
same,T/C,[2],106 % of control
same,T/C,"dose: 300.0 mg/kg/injection, schedule: Q01DX009 (ip), vehicle: other",100 % of control
same,T/C,[3],95 % of control
CN(N)C=O,T/C,"dose: 75.0 mg/kg/injection, schedule: Q01DX001 (ip), vehicle: saline",100 % of control
same,T/C,[1],108 % of control
same,T/C,"dose: 150.0 mg/kg/injection, schedule: Q01DX001 (ip), vehicle: saline",96 % of control
same,T/C,"dose: 300.0 mg/kg/injection, schedule: Q01DX001 (ip), vehicle: saline",98 % of control
Cc1c([N+](=O)[O-])cc(C(C)(C)C)c(OS(C)(=O)=O)c1[N+](=O)[O-],T/C,[4],92 % of control
same,T/C,"dose: 50.0 mg/kg/injection, schedule: Q04DX002 (ip), vehicle: saline with Tween-80",99 % of control
same,T/C,"dose: 100.0 mg/kg/injection, schedule: Q04DX002 (ip), vehicle: saline with Tween-80",96 % of control
C/C=C/C(=O)Nc1ccc(CC)cc1,T/C,[5],95 % of control
same,T/C,[6],92 % of control
CC1(C)OC(=O)C2C3CCC(C2C(=O)O)C31 (centres undefined),T/C,[7],100 % of control
same,T/C,[8],96 % of control
same,T/C,[9],100 % of control
CCCC(C)C(=NC)Nc1ccc(Cl)c(Cl)c1 (centres undefined),T/C,"dose: 11.1 mg/kg/injection, schedule: Q01DX Z (ip), vehicle: methylcellulose (MC)",91 % of control
same,T/C,"dose: 16.6 mg/kg/injection, schedule: Q01DX Z (ip), vehicle: methylcellulose (MC)",95 % of control
CC(C#N)c1cccc(C(=O)O)c1 (centres undefined),T/C,[10],105 % of control
same,T/C,[11],105 % of control
same,T/C,[12],96 % of control
O=C(O)C1C(C(=O)Nc2cc(C(F)(F)F)ccc2Cl)C2(Cl)C(Cl)=C(Cl)C1(Cl)C2(Cl)Cl (centres undefined),T/C,[13],97 % of control
same,T/C,"dose: 50.0 mg/kg/injection, schedule: Q01DX009 (ip), vehicle: Klucel (hydroxypropylcellulose) (HPC)",95 % of control
same,T/C,"dose: 50.0 mg/kg/injection, schedule: Q04DX003 (ip), vehicle: Klucel (hydroxypropylcellulose) (HPC)",95 % of control
same,T/C,[7],93 % of control and 91 % of control
CCCNC(=O)Oc1c(C(C)C)ccc(C)c1Cl,T/C,[14],108 % of control
same,T/C,[15],88 % of control
same,T/C,"dose: 400.0 mg/kg/injection, schedule: Q01DX009 (ip), vehicle: saline with Tween-80",95 % of control
O=C1C=CC(=O)C(SCCC(=O)O)=C1,T/C,[16],102 % of control
same,T/C,[10],101 % of control
same,T/C,[14],97 % of control
same,T/C,[15],96 % of control
CCN1N=Nc2cccc3cccc1c23,T/C,"dose: 100.0 mg/kg/injection, schedule: Q04DX003 (ip), vehicle: acetone",99 % of control
same,T/C,"dose: 200.0 mg/kg/injection, schedule: Q04DX003 (ip), vehicle: acetone",100 % of control
CCCCCCCCCCCCc1ccc2c(c1)CCc1ccccc1-2,T/C,[10],97 % of control
same,T/C,[11],92 % of control
same,T/C,[12],90 % of control
O=C(O)c1cc(Br)cc(Br)c1Cl,T/C,"dose: 100.0 mg/kg/injection, schedule: Q04DX002 (ip), vehicle: Klucel (hydroxypropylcellulose) (HPC)",108 % of control
same,T/C,"dose: 200.0 mg/kg/injection, schedule: Q04DX002 (ip), vehicle: Klucel (hydroxypropylcellulose) (HPC)",105 % of control
same,T/C,"dose: 400.0 mg/kg/injection, schedule: Q04DX002 (ip), vehicle: Klucel (hydroxypropylcellulose) (HPC)",97 % of control
CCC1=C[C@H]2CN(CCc3c([nH]c4ccccc34)[C@@](C(=O)OC)(c3cc4c(cc3OC)N(C)[C@H]3[C@@](O)(C(=O)NC)[C@H](OC(C)=O)[C@]5(CC)C=CCN6CC[C@]43[C@@H]65)C2)C1,T/C,"dose: 0.03 mg/kg/injection, schedule: Q01DX009 (ip), vehicle: saline",103 % of control
same,T/C,"dose: 0.03 mg/kg/injection, schedule: Q01DX009 (ip), vehicle: water",103 % of control
same,T/C,"dose: 0.06 mg/kg/injection, schedule: Q01DX009 (ip), vehicle: saline",114 % of control
same,T/C,"dose: 0.06 mg/kg/injection, schedule: Q01DX009 (ip), vehicle: water",115 % of control
same,T/C,"dose: 0.12 mg/kg/injection, schedule: Q01DX009 (ip), vehicle: saline",117 % of control
same,T/C,"dose: 0.25 mg/kg/injection, schedule: Q01DX009 (ip), vehicle: saline",114 % of control
same,T/C,"dose: 0.25 mg/kg/injection, schedule: Q01DX009 (ip), vehicle: water",157 % of control
same,T/C,"dose: 1.0 mg/kg/injection, schedule: Q01DX009 (ip), vehicle: saline",120 % of control
same,T/C,"dose: 1.0 mg/kg/injection, schedule: Q01DX009 (ip), vehicle: water",118 % of control
COc1cc(CC2=NCCc3cc(OC)c(OCc4ccccc4)cc32)ccc1OCc1ccccc1,T/C,[14],94 % of control
same,T/C,[15],100 % of control
[O-][n+]1ccccc1SSc1cccc[n+]1[O-],T/C,"dose: 6.25 mg/kg/injection, schedule: Q01DX009 (ip), vehicle: Klucel (hydroxypropylcellulose) (HPC)",99 % of control
same,T/C,"dose: 12.5 mg/kg/injection, schedule: Q01DX009 (ip), vehicle: Klucel (hydroxypropylcellulose) (HPC)",96 % of control and 98 % of control
same,T/C,[13],88 % of control
Cc1ccc([N+](=O)[O-])cc1NC(=O)Nc1ccc(CCO)cc1,T/C,[5],90 % of control
same,T/C,[6],93 % of control
O=C(NCC(O)CNC(=O)Nc1ccc(C2=NCCCN2)cc1)Nc1ccc(C2=NCCCN2)cc1,T/C,"dose: 1.25 mg/kg/injection, schedule: Q01DX Z (ip), vehicle: carboxymethylcellulose (CMC)",98 % of control
same,T/C,"dose: 2.5 mg/kg/injection, schedule: Q01DX Z (ip), vehicle: carboxymethylcellulose (CMC)",101 % of control
same,T/C,"dose: 5.0 mg/kg/injection, schedule: Q01DX Z (ip), vehicle: carboxymethylcellulose (CMC)",90 % of control
same,T/C,"dose: 10.0 mg/kg/injection, schedule: Q01DX Z (ip), vehicle: carboxymethylcellulose (CMC)",97 % of control and 106 % of control
same,T/C,"dose: 20.0 mg/kg/injection, schedule: Q01DX Z (ip), vehicle: carboxymethylcellulose (CMC)",104 % of control
O=[N+]([O-])c1ccc(OCC2CO2)cc1 (centres undefined),T/C,"dose: 100.0 mg/kg/injection, schedule: Q04DX002 (ip), vehicle: gum acacia",100 % of control
same,T/C,"dose: 200.0 mg/kg/injection, schedule: Q04DX002 (ip), vehicle: gum acacia",117 % of control
same,T/C,"dose: 400.0 mg/kg/injection, schedule: Q04DX002 (ip), vehicle: gum acacia",88 % of control
NC12CC3CC(C1)CC(F)(C3)C2,T/C,"dose: 50.0 mg/kg/injection, schedule: Q01DX009 (ip), vehicle: saline",101 % of control
same,T/C,[17],99 % of control
same,T/C,[18],101 % of control
same,T/C,[19],93 % of control
O=C(O)C1=CC(O)C(O)C(O)C1 (centres undefined),T/C,"dose: 100.0 mg/kg/injection, schedule: Q01DX009 (ip), vehicle: saline sonified",103 % of control
same,T/C,[17],104 % of control
same,T/C,[1],92 % of control
same,T/C,"dose: 200.0 mg/kg/injection, schedule: Q01DX009 (ip), vehicle: saline sonified",86 % of control
same,T/C,[18],107 % of control
same,T/C,[2],100 % of control
same,T/C,[19],106 % of control
same,T/C,[3],97 % of control
FC(F)(F)C1=N/C(=C2\N=C(C(F)(F)F)N=C2Cl)C(Cl)=N1,T/C,"dose: 25.0 mg/kg/injection, schedule: Q01DX009 (ip), vehicle: saline with Tween-80",94 % of control
same,T/C,[16],96 % of control
Nc1cnc([S][Sn]([c]2ccccc2)([c]2ccccc2)[c]2ccccc2)s1,T/C,"dose: 6.25 mg/kg/injection, schedule: Q04DX002 (ip), vehicle: saline with Tween-80",101 % of control
same,T/C,"dose: 12.5 mg/kg/injection, schedule: Q04DX002 (ip), vehicle: saline with Tween-80",96 % of control
same,T/C,[4],104 % of control
CNc1ccccc1C#N,T/C,[5],102 % of control
same,T/C,[7],93 % of control
same,T/C,[6],98 % of control
same,T/C,[8],95 % of control
same,T/C,"dose: 400.0 mg/kg/injection, schedule: Q01DX009 (ip), vehicle: Klucel (hydroxypropylcellulose) (HPC)",109 % of control
same,T/C,[9],97 % of control
